Assay results taken from article PMC6524416, “Nanofibrous Scaffolds Support a 3D in vitro Permeability Model of the Human Intestinal Epithelium” (Frontiers in Pharmacology, 2019).
Where two headings read alike, the source gives them in different places.

Key:
human jejunal = conditions: ref Sjöberg et al. (2013), Rozehnal et al. (2012), cited from earlier work
[1] = system: Caco-2 cultures on nanofibrous scaffolds; test: Bidirectional permeability across Caco-2 cultures on collagen-coated PET nanofibrous scaffolds; type: in vitro ADME, human
Procedure: (§1) Polyethylene terephthalate flakes (food grade; were procured from recycled plastic bottles and processed in-house) were dissolved in a 1:1 solution of dichloromethane and trifluoroacetic acid (overnight with stirring) and the polymer solution transferred into a syringe fitted with a blunt needle (18 gauge spinneret) attached to a syringe pump (Harvard Apparatus, United Kingdom). Electrospinning was conducted at a flow rate of 0.5 mL/hr at 14 kV voltage (Glassman High Voltage Inc., Series EL, Glassman Europe Ltd., United Kingdom; Supplementary Figure S1). The fibers were collected on a grounded static plate or rotating collector (a tip-collector distance of 15 cm). The scaffolds were removed with the aid of 70% (v/v) IMS and allowed to air dry at room temperature (RT).
(§2) The nanofibrous scaffolds were surface coated with type I bovine collagen (Sigma-Aldrich). For type I bovine collagen coating, 150 μL of collagen solution (stock and working concentrations 3.1 mg/mL and 31 μg/mL, respectively) was gently pipetted ensuring adequate coverage of the entire scaffold. Samples were incubated at RT under aseptic conditions for 1–2 h. Any remaining collagen solution was aspirated and the scaffolds washed with PBS before cell seeding. Control scaffolds included PET nanofibers with no surface treatment.
(§3) Caco-2 (used within 20 passages throughout the study) was obtained from the Clinical Pathology Laboratory, Queens Medical Centre, Nottingham and are available from ATCC. They were cultured in DMEM (Gibco) supplemented with 10% (v/v) foetal calf serum (FCS), 2 mM L-Glutamine solution, 1% (v/v) antibiotic/antimycotic solution (Gibco; final concentrations of […] streptomycin sulfate and 25 μgmL^-1 amphotericin B) at 37°C, 5% CO2 in 95% relative humidity (RH). Cells were cultured to around 80% confluence before harvesting cells by passaging with Trypsin/EDTA (Sigma Aldrich). Cell culture media was replaced every 2 days. For the initial evaluation of the scaffold compatibility, Collagen type I and untreated nanofibrous scaffolds were mounted in 24-well Cell Crown^TM inserts (Scaffdex). The mounted inserts were then placed in 12-well culture plates and seeded with 50,000 cells in 200 μL per insert. An additional 1 mL culture media was added to the well of the plate which ensured the insert were adequately surrounded and bathed in culture media. Following 24 h of culture at 37°C, 5% CO2, the PrestoBlue viability assay was carried out according to manufacturer’s instructions. In brief, a working solution of 10% (v/v) was prepared from the stock PrestoBlue solution in HBSS and sterile filtered using a 0.2 μm pore filter. Samples were washed three times with pre-warmed PBS and the working solution of PrestoBlue solution applied to the upper chamber of the inserts. Following a 30 min incubation period at 37°C, 5% CO2 with shaking at 150 rpm, 100 μL aliquots were taken from each sample and dispensed in triplicate into a black 96-well plate. The fluorescence of the samples was determined using a plate reader (Tecan Infinite 200, Tecan, United Kingdom) at 530/590 nm (excitation/emission wavelengths). Subsequent viability assays were conducted on day 3 and day 6 of culture to provide an initial assessment of the benefit of the surface treatments on cell adhesion and proliferation. To evaluate barrier formation, Snapwell® hanging inserts (6-well; Corning Life Sciences) were employed as unlike the CellCrown^TM inserts, the Snapwell® hanging inserts provided discrete apical and basolateral chambers in a 6-well plate formate appropriate for assessing barrier formation. The existing polycarbonate membrane on the securing clip of the Snapwell® insert were removed with a scalpel and the nanofiber scaffold affixed securely to the hanging insert by means of the securing clip (Supplementary Figure S1).

[2] = system: Caco-2 monolayers on Transwell®; test: Bidirectional permeability across Caco-2 monolayers on Transwell inserts; type: in vitro ADME, human; conditions: Caco-2 on Transwell, pH 7.4, mean (±SD)
Procedure: as §3, with “S1). Cells were seeded using the same cell density (178,000 cells/cm^2) as had been previously optimized for Caco-2 Transwell® cultures ([Hubatsch et al., 2007]). A cell suspension containing 200,000 cells in 500 μL were seeded onto the upper chamber of the Snapwell® inserts and cultured for 15–21 days at 37°C, 5% CO2 in air prior for TEER evaluation and for permeability tests.” for “S1).”
(§4) Transport studies were conducted using standard, widely accepted protocols as previously described ([Volpe, 2008]). Transport markers were prepared in transport buffer (HBSS, 25 mM HEPES, pH 7.4). Dimethyl sulfoxide (DMSO) was used to aid solubilisation of poorly soluble drugs at a maximum final concentration of 0.1% (v/v) used in all transport experiments. TEER was measured before and after each experiment to ensure barrier integrity during the experiments and as a control measure of experimental validity. Inserts were transferred to fresh plates containing transport buffer (apical/basolateral volumes were 0.4/1.2 mL and 0.5/6 mL for Transwell® and Snapwell® inserts, respectively). Donor solutions were added to the relevant compartments and the inserts were then incubated at 37°C with shaking at 150 rpm and sampled at intervals of 30 min or 1 h for 1–2 h. Apparent permeability coefficients (Papp) were calculated according to Eq. 2: […]

[3] = system: porcine intestinal segments; test: Bidirectional permeability across ex vivo porcine intestinal segments; type: in vitro ADME, pig
Procedure: (§5) In accordance with the NC3R framework on the reduction and refinement of animals in research; samples were only obtained from healthy adult pig cadavers being used for the purposes of other research projects. The work was conducted according to United Kingdom Home Office guidelines (Animal Scientific Procedures Act […]) and following local AWERB approval (ref 000057). Regional sections from the duodenum (first 25 cm from the stomach), jejunum (150 cm from the stomach) and ileum (first 50 cm back from the ileocecal valve) were resected from pig cadavers (Supplementary Figure S2). Using tweezers the serosa and muscularis propria (muscle layers) were carefully peeled away leaving the mucosa. Sections were washed in PBS, cut to fit the Transwell® inserts (Corning Life Sciences) and transferred in 6-well plates. All tissue was kept on the ice and used within a 24 h time period, post-collection.
(§6) Transport studies were conducted using standard, widely accepted protocols as previously described ([Volpe, 2008]). Transport markers were prepared in transport buffer (HBSS, 25 mM HEPES, pH 7.4). Dimethyl sulfoxide (DMSO) was used to aid solubilisation of poorly soluble drugs at a maximum final concentration of 0.1% (v/v) used in all transport experiments. TEER was measured before and after each experiment to ensure barrier integrity during the experiments and as a control measure of experimental validity. Inserts were transferred to fresh plates containing transport buffer (apical/basolateral volumes were 0.4/1.2 mL and 0.5/6 mL for Transwell® and Snapwell® inserts, respectively). Donor solutions were added to the relevant compartments and the inserts were then incubated at 37°C with shaking at 150 rpm and sampled at intervals of 30 min or 1 h for 1–2 h. Apparent permeability coefficients (Papp) were calculated according to Eq. 2:
(§7) Where dQ/dt is the flux of the compound being investigated (μM s-1), A is the exposed surface area of the insert/scaffold (cm^2) and C0 is the concentration in the apical compartment at t = 0 (μM).
(§8) Compound recovery following permeability assessment were calculated according the following Eq. 3:
(§9) (3) Recovery (%)=[CR(final)×VR(final))×100/(CD(initial)×VD(initial)]
(§10) Where CD and CR are the donor and receiver compartment concentrations, VD and VR are the donor and receiver compartment volumes at t = 0 (initial) or the end of the experiment (final).
(§11) All HPLC was performed using a Kinetix XB-C18 5 μm, 100 Å pore size, 150 mm × 4.56 mm column (with a guard column) on an Agilent 1100 HPLC system. […] Samples were analyzed using gradient runs with Milli-Q dH2O, 0.5% TFA (eluent A) and acetonitrile, 0.5% TFA (eluent B).

[4] = as above; type: in vitro ADME, pig; conditions: pig; for recovery: pH 7.4, porcine intestinal segments; for Papp A→B / Papp B→A: pH 7.4, all porcine segments (duodenum, jejunum, ileum); for Papp A→B: A to B, read-out: Papp (A to B), range over porcine segments; for Papp B→A: B to A, read-out: Papp (B to A), range over porcine segments
Procedure: as §5, §6, §7, §8, §9, §10, §11

[5] = Bidirectional permeability across Caco-2 cultures on collagen-coated PET nanofibrous scaffolds; type: in vitro ADME, human; conditions: human, Caco-2 on nanofiber scaffolds, pH 7.4, mean (±SD)
Procedure: as §1, §2, §3

[6] = Bidirectional permeability across Caco-2 monolayers on Transwell inserts; type: in vitro ADME, human; conditions: human, Caco-2 on Transwell; for Papp A→B: apical to basolateral; for Papp A→B / Papp B→A: pH 7.4, mean (±SD); for Papp B→A: basolateral to apical
Procedure: as §3, with “S1). Cells were seeded using the same cell density (178,000 cells/cm^2) as had been previously optimized for Caco-2 Transwell® cultures ([Hubatsch et al., 2007]). A cell suspension containing 200,000 cells in 500 μL were seeded onto the upper chamber of the Snapwell® inserts and cultured for 15–21 days at 37°C, 5% CO2 in air prior for TEER evaluation and for permeability tests.” for “S1).”
as §4

[7] = system: porcine intestinal tissue; conditions: uncorrected Papp; ref Westerhout et al. (2014); cited from earlier work
Caco-2 monolayers = system: Caco-2 monolayers; set-up: method as in Artursson et al., 1993, 2001; conditions: ref Artursson et al., 1993, 2001; cited from earlier work

Compound: lucifer yellow [LY]
- human jejunal Papp (human jejunal; first listed value): 4.02 ± 2.20 × 10^-6 cm s^-1
- Papp (A to B) ([1]; Caco-2 on nanofiber scaffolds, apical to basolateral, pH 7.4, mean (±SD)): 7.14 (±0.4.53) × 10^-6 cm s^-1
- Papp (B to A) ([1]; Caco-2 on nanofiber scaffolds, basolateral to apical, pH 7.4, mean (±SD)): 8.51 (±6.61) × 10^-6 cm s^-1
- Papp (A to B) ([2]; apical to basolateral): 0.30 (±0.13) × 10^-6 cm s^-1
- Papp (B to A) ([2]; basolateral to apical): 0.66 (±0.23) × 10^-6 cm s^-1
- Papp (A to B) ([3]; porcine duodenal section): 4.66 (±1.19) × 10^-6 cm s^-1
- Papp (B to A) ([3]; porcine duodenal section): 2.01 (±0.85) × 10^-6 cm s^-1
- Papp (A to B) ([3]; porcine ileal section): 5.58 (±3.93) × 10^-6 cm s^-1
- Papp (B to A) ([3]; porcine ileal section): 3.80 (±3.46) × 10^-6 cm s^-1
- Papp (A to B) ([3]; porcine jejunal section): 5.71 (±1.50) × 10^-6 cm s^-1
- Papp (B to A) ([3]; porcine jejunal section): 4.31 (±2.58) × 10^-6 cm s^-1

Compound: CC(C)NCC(O)COc1ccc(CC(N)=O)cc1 (stereo not drawn) [ATN, Atenolol]
- recovery ([4]; read-out: average recovery): 80%
- recovery ([4]; read-out: recovery (range)): 70 to 95%

Compound: CC(C)NCC(O)COc1cccc2ccccc12 (stereo not drawn) [PRN, Propranolol]
- increase in permeability over Transwell cultures ([1]; nanofiber based culture vs Transwell Caco-2): more than a two-fold increase
- Papp A→B ([5]; apical to basolateral): 86.3 ×10⁻⁶ cm/s
- Papp B→A ([5]; basolateral to apical): 75.1 ×10⁻⁶ cm/s
- Papp A→B [6]: 30.7 ×10⁻⁶ cm/s
- Papp B→A [6]: 32 ×10⁻⁶ cm/s
- Papp [7]: 0.42 ×10⁻⁶ cm/s
- recovery ([4]; read-out: average recovery): 58%
- recovery ([4]; read-out: recovery (range)): 35 to 75%
- Papp A→B [4]: 7.76 to 9.6 ×10⁻⁶ cm/s
- Papp B→A [4]: 1.85 to 5.5 ×10⁻⁶ cm/s

Compound: polyethylene glycols
- fold lower permeability in Caco-2 monolayers compared to human in vivo (Caco-2 monolayers): ~100 fold

Compound: OC[C@@H](O)[C@@H](O)[C@H](O)[C@H](O)CO [mannitol]
- human jejunal Papp (human jejunal; second listed value): 5.56 ± 2.21 × 10^-6 cm s^-1

Compound: COC(=O)c1ccccc1-c1c2ccc(=N)cc-2oc2cc(N)ccc12 [Rho-123, rhodamine 123]
- active efflux ([1]; 3D nanofiber based cultures): not detectable
- efflux ratio at 10 µM ([6]; pH 7.4, B to A / A to B): 4.6
- Papp A→B [6]: 0.82 ×10⁻⁶ cm/s
- Papp B→A [6]: 3.8 ×10⁻⁶ cm/s
- recovery ([4]; read-out: recovery (range)): 37 to 54%
- Papp A→B [4]: 5.6 to 7.6 ×10⁻⁶ cm/s
- Papp B→A [4]: 1.8 to 3.6 ×10⁻⁶ cm/s
- active efflux ([3]; porcine tissue segments): not detectable
